A short description of data set [1]: Standard test for evaluation of inhalation anesthetics (rotating drum, 10 minutes exposure; AC50, LC50, AI). Format: in vivo, mice. To be noted: mouse, in vivo, inhaled or intranasal, calculated from AC50 and LC50, mice; read-out: AI (anesthetic index). As to the method: (§1) In this test, mice were exposed to the compounds for a period of 10 minutes in a rotating drum. Observations were then made of the pinch reflex, the corneal reflex and the return of the righting reflex. At least four graded doses were employed to determine the minimum concentration required to anesthetize 50% of the mice used (AC50) and the minimum concentration required to kill 50% of the mice (LC50). The anesthetic index (AI) was then calculated from these minimum concentrations. The data obtained with the compounds of Examples I to XIII are presented in Table 2 along with, for comparison purposes, results obtained from similar testing of 1,2-dihydrohexafluorocyclobutane, the compound of the prior art, a closely related analog, 1,1,2,2-tetrafluorocyclobutane, and another chlorofluoro anesthetic, 1,1,2-trichloro-2,3,3-trifluorocyclobutane.

The subject of data set [2] is mice. Described as above. The data set is classed as in vivo. To be noted: for AC50 (minimum concentration required to anesthetize 50% of the mice) / LC50 (minimum concentration required to kill 50% of the mice): inhalation, 10 minutes exposure in rotating drum, where two percentages are given the actual vapor concentration lies between them. As to the method:
as §1

A further data set has as its system air-breathing mammals. Kind of data set: Inhalation anesthetic properties of the compounds. Format: in vivo. Particulars: for Convulsions and death: administered in concentrations within the useful range; for Inhalation anesthetic properties: in vivo. As to the method: as §1
For data set [3] the following is noted: cis- and trans- isomers, values reported by Burns et al; cited from earlier work.
Data set [4] concerns mice. Briefly: Observation after exposure: survival, delayed death, convulsions. Format: in vivo. As to the method:
as §1
In contrast to these findings, all test mice used in Example I to X were still living one week after exposure.
This compound, which is one of the numerous halogenated cyclobutanes that have been found deleterious, is of particular interest in that its close structural relationship to the 1,2-dihydrohexafluorocyclobutane isomers of the art and to the useful trifluoro (Ex. VII) homolog disclosed above provides a good illustration of the unpredictability in physiological behavior in the field of anesthesia.

The conditions of data set [5]: review of the art; cited from earlier work.

Bounds are passed on as bounds.

Turning to `FC(F)(F)C(Cl)Br` (centres unmarked) [halothane, reference compound], in data set [1], the selectivity ratio at 10 min was about 3.
As for `FC1C(Cl)CC1(F)F` (centres unmarked) [IV, 1-chloro-2,3,3-trifluorocyclobutane], the selectivity ratio at 10 min in data set [1] was at least 4. In the data set with mice [2], the “AC50 (minimum concentration required to anesthetize 50% of the mice)” value is given as 0.75-1 % volume and the “LC50 (minimum concentration required to kill 50% of the mice)” value is on record as at least 4 % volume. Moreover, in the data set with air-breathing mammals, the Convulsions and death entry is “not cause convulsions and death”; the Inhalation anesthetic properties entry was “found to possess inhalation anesthetic properties”.
Take `FC1C(F)C(F)(F)C1(F)F` (centres unmarked) [XI, b.p. 63°]: the “AC50 (anesthetic concentration)” value in data set [3] was 1.9 % volume.
With `FC1(F)CC(Cl)C1(F)Cl` (centres unmarked) [I, b.p. 107°C], in data set [1], the selectivity ratio at 10 min is 6. Also, in the data set on mice [2], the “AC50 (minimum concentration required to anesthetize 50% of the mice)” value is reported as 0.2 % volume and the “LC50 (minimum concentration required to kill 50% of the mice)” value is given as 1.2 % volume.
With `FC1(F)CC(Cl)C1(F)Cl` (centres unmarked) [I, b.p. 104°C], in the data set on mice [2] (calculated from AC50 and LC50, mice, 10 min), the “AI (anesthetic index)” value is on record as 4. Further, in the data set on mice [2], the “AC50 (minimum concentration required to anesthetize 50% of the mice)” value is on record as 0.2 % volume and the “LC50 (minimum concentration required to kill 50% of the mice)” value turned out to be 0.8 % volume.
As for `FC1(F)CC(Cl)C1(F)Cl` (centres unmarked) [1,4-dichloro-1,2,2-trifluorocyclobutane], in the data set on air-breathing mammals, the Convulsions and death entry was “not cause convulsions and death”; the Inhalation anesthetic properties result is on record as “found to possess inhalation anesthetic properties”.
On to `FC1CCC1(F)F` (centres unmarked) [VII, 1,2,2-trifluorocyclobutane], for which the selectivity ratio at 10 min in data set [1] was at least 2. Further, in the data set with mice [2], the “AC50 (minimum concentration required to anesthetize 50% of the mice)” value was under 4 % volume and the “LC50 (minimum concentration required to kill 50% of the mice)” value came to 8 % volume. In the data set with air-breathing mammals, the Convulsions and death entry is “not cause convulsions and death”; the Inhalation anesthetic properties entry is given as “found to possess inhalation anesthetic properties”.
Consider `FC1(F)CCC1(F)F` [Example XII, 1,1,2,2-tetrafluorocyclobutane, reference compound], for which, in data set [1], the selectivity ratio at 10 min was 3. Moreover, in the data set with mice [2], the “AC50 (minimum concentration required to anesthetize 50% of the mice)” value is recorded as 4 % volume and the “LC50 (minimum concentration required to kill 50% of the mice)” value is recorded as 12 % volume. For the same compound, the Convulsions result in the data set with mice [4] (on further observation) is reported as “proved to be a convulsant on further observation”.
Turning to `FC1(F)CC(F)(Cl)C1(F)F` (centres unmarked) [V, 1-chloro-1,2,2,3,3-pentafluorocyclobutane], the selectivity ratio at 10 min in data set [1] is 5. For the same compound, in the data set with mice [2], the “AC50 (minimum concentration required to anesthetize 50% of the mice)” value is 2 % volume and the “LC50 (minimum concentration required to kill 50% of the mice)” value stood at 10 % volume. Besides, in the data set with air-breathing mammals, the Convulsions and death entry was “not cause convulsions and death”; the Inhalation anesthetic properties entry is listed as “found to possess inhalation anesthetic properties”.
For `FC1(F)CC(Cl)(Cl)C1(F)Cl` (centres unmarked) [XIII, 1,1,2-trichloro-2,3,3-trifluorocyclobutane, reference compound], the selectivity ratio at 10 min in data set [1] was 5. In addition, in the data set with mice [2], the “AC50 (minimum concentration required to anesthetize 50% of the mice)” value turned out to be 0.2 % volume and the “LC50 (minimum concentration required to kill 50% of the mice)” value came out at 1 % volume. In the data set with mice [4] (mice, retested in the manner of Examples I to X, XII and XIII, after apparent recovery from anesthesia), the Delayed death entry is listed as “The same "delayed death" phenomenon has been observed”.
On to `FC1(F)CC(F)(Cl)C1(F)Cl` (centres unmarked) [III, 1,4-dichloro-1,2,2,4-tetrafluorocyclobutane], for which, in data set [1], the selectivity ratio at 10 min is at least 1. In addition, in the data set on mice [2], the “AC50 (minimum concentration required to anesthetize 50% of the mice)” value is listed as 0.43-2 % volume and the “LC50 (minimum concentration required to kill 50% of the mice)” value is reported as 2-3 % volume. Besides, in the data set on air-breathing mammals, the Convulsions and death entry is “not cause convulsions and death”; the Inhalation anesthetic properties entry is reported as “found to possess inhalation anesthetic properties”.
Take `FC1C(F)C(F)(F)C1(F)F` (centres unmarked) [XI, b.p. 26°]: the “AC50 (anesthetic concentration)” value in data set [3] is reported as 10.5 % volume.
Regarding `FC1(F)CCC1(F)Br` (centres unmarked) [VIII, 1-bromo-1,2,2-trifluorocyclobutane], the selectivity ratio at 10 min in data set [1] was at least 7. For the same compound, in the data set with mice [2], the “AC50 (minimum concentration required to anesthetize 50% of the mice)” value is listed as under 0.5 % volume and the “LC50 (minimum concentration required to kill 50% of the mice)” value stood at 3.5 % volume. Moreover, in the data set on air-breathing mammals, the Convulsions and death result is “not cause convulsions and death”; the Inhalation anesthetic properties entry is “found to possess inhalation anesthetic properties”.
With `C1CC1` [cyclopropane], in data set [5], the “Anesthetic properties / toxicity in the prior art” value (“Anesthetic properties / toxicity” below) was “effective if inflammable anesthetic”.
With `FC1CC(F)(F)C1(F)Cl` (centres unmarked) [II, 1-chloro-1,2,2,4-tetrafluorocyclobutane], the selectivity ratio at 10 min in data set [1] was at least 6. Further, in the data set on mice [2], the “AC50 (minimum concentration required to anesthetize 50% of the mice)” value is given as 0.5 % volume and the “LC50 (minimum concentration required to kill 50% of the mice)” value is given as 3-3.5 % volume. For the same compound, in the data set on air-breathing mammals, the Convulsions and death entry was “not cause convulsions and death”; the Inhalation anesthetic properties entry is listed as “found to possess inhalation anesthetic properties”.
On to `FC1CC(F)(F)C1Cl` (centres unmarked) [VI, 1-chloro-2,4,4-trifluorocyclobutane], for which the selectivity ratio at 10 min in data set [1] was at least 2. Further, in the data set on mice [2], the “AC50 (minimum concentration required to anesthetize 50% of the mice)” value is reported as under 1 % volume and the “LC50 (minimum concentration required to kill 50% of the mice)” value stood at 2 % volume. In the data set on air-breathing mammals, the Convulsions and death result was “not cause convulsions and death”; the Inhalation anesthetic properties result is “found to possess inhalation anesthetic properties”.
Regarding `FC1(F)CC(Cl)C1(F)Br` (centres unmarked) [Example X, 1-bromo-2-chloro-1,4,4-trifluorocyclobutane], the selectivity ratio at 10 min in data set [1] was at least 2.5. In the data set on mice [2], the “AC50 (minimum concentration required to anesthetize 50% of the mice)” value was under 0.2 % volume and the “LC50 (minimum concentration required to kill 50% of the mice)” value is recorded as 0.5 % volume. Further, in the data set with air-breathing mammals, the Convulsions and death entry was “not cause convulsions and death”; the Inhalation anesthetic properties entry is listed as “found to possess inhalation anesthetic properties”.
Turning to `CC1CC(F)(F)C1(F)Br` (centres unmarked) [IX, 1-bromo-2-methyl-1,4,4-trifluorocyclobutane], in data set [1], the selectivity ratio at 10 min was at least 1.5. In the data set on mice [2], the “AC50 (minimum concentration required to anesthetize 50% of the mice)” value was 0.5-1 % volume and the “LC50 (minimum concentration required to kill 50% of the mice)” value is 1.5-1.75 % volume. Moreover, in the data set with air-breathing mammals, the Convulsions and death result was “not cause convulsions and death”; the Inhalation anesthetic properties entry is given as “found to possess inhalation anesthetic properties”.
`FC1C(F)C(F)(F)C1(F)F` (centres unmarked) [1,2-dihydrohexafluoro-, 1,2-dihydrohexafluorocyclobutane]: in data set [5], the “Anesthetic properties / toxicity” value is “said to possess anesthetic properties”.
Turning to `FC1(F)C(F)(F)C(F)(Cl)C1(F)Cl` (centres unmarked) [1,2-dichlorohexafluoro-], the “Anesthetic properties / toxicity” value in data set [5] was “toxic”.
For the compound `FC1(F)C(F)(F)C(F)(F)C1(F)F` [octafluoro-], the “Anesthetic properties / toxicity” value in data set [5] is “inactive”.

The values above are taken from patent publication US3954893A, “New halogenated cyclobutanes” (W. R. Grace & Co., priority 1975, dated 1976).
